From patent US10710962B2, “Zwitterionic reagents” (Siemens Healthcare Diagnostics Inc., priority 2010, dated 2020)

Biological target: T1, BSA-NSP-DMAE (Bos taurus, UniProt P02769)
T1 construct: NSP-DMAE acridinium ester (chemical label attached through an amine-reactive NHS ester, about 1.4 per molecule)
Experiment: Zwitterion label incorporation into acridinium ester labeled BSA, measured by MALDI-TOF mass spectroscopy
Parameters: species or system bovine
Procedure: The zwitterion-containing compounds of the present invention may also be useful for lowering the non-specific binding of hydrophobic and ‘sticky’ proteins. In one experiment, the chemical competency of certain exemplary amine-reactive zwitterion-containing compounds shown in FIG. 1 were evaluated by treating an acridinium ester (e.g., 2′,6′-Dimethyl-4′-(N-succinimidyloxycarbonyl)phenyl 10-Methyl-9-acridinecarboxylate Methylsulfate (NSP-DMAE) or other suitable acridinium esters described by Law et al. in U.S. Pat. No. 5,656,426, which is incorporated herein by reference) labeled bovine serum albumin (BSA) or bovine gamma globulin (BGG) with 10 and 20 equivalents of the zwitterion-containing compound followed by measurement of the zwitterion-containing compound incorporation by mass spectroscopy. The detailed experimental protocol is described in Example 15.
A solution of BSA (4 mg, 60 nmoles) in 1 mL of 0.1 M sodium bicarbonate was treated with 5 equivalents of 2′,6′-Dimethyl-4′-(N-succinimidyloxycarboxnyl)phenyl 10-(3′-Sulfopropyl)-acridinium-9-carboxylate (NSP-DMAE-NHS) added as a solution in DMF (72 μL of a 2 mg/mL solution in DMF). The reaction was stirred at room temperature for 4 hours. The reaction was then transferred to a 4 mL amicon filter (MW 30,000 cutoff) and diluted with 3 mL de-ionized water. The filter was centrifuged at 4000G for 8 minutes to reduce the volume to about 0.25 mL. The final conjugate was diluted to 0.8 mL with de-ionized water to give a 5 mg/mL solution. Acridinium ester label incorporation, measured by MALDI-TOF mass spectroscopy using sinnapinic acid as matrix indicated the incorporation of 1.4 labels.
Further labeling of the acridinium ester-labeled BSA conjugate with the zwitterion labels 1d, 2c, 3c and 4c was carried out as follows. The conjugate (0.5 mg, 7.5 nmoles, 100 μL) was diluted with 100 μL of sodium carbonate, pH 9. To this conjugate, in four separate reactions, was added 10 equivalents of the four zwitterion labels 1d, 2c, 3c and 4c dissolved in DMSO corresponding to 12.8 μL of a 2.5 mg/mL solution of 1d; 16.5 μL of a 2 mg/mL solution of 2c; 16.5 μL of a 2 mg/mL solution of 3c and 14 μL of a 2.5 mg/mL solution of 4c. The reactions were stirred at room temperature for 4 hours and were then processed as described above.

T1 sequence (P02769 25-607): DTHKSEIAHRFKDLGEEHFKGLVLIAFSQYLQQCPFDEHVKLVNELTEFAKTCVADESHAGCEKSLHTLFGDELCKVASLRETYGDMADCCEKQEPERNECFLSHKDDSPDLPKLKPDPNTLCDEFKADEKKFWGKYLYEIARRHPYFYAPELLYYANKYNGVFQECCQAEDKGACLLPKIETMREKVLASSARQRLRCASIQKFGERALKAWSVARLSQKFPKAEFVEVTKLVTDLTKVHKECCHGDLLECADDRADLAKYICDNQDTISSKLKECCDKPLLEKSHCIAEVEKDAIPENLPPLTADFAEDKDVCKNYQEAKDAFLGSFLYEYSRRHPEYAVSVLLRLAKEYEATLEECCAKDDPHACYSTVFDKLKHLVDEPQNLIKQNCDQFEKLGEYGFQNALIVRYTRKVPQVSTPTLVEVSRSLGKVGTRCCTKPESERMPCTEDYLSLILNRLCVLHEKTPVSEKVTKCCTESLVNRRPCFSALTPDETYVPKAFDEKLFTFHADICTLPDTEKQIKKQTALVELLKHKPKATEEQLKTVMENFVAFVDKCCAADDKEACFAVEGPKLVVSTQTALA

SMILES	# of Zwitterion-Containing Compounds Incorporated by Conjugate (input 10 equivalents)	# of Zwitterion-Containing Compounds Incorporated by Conjugate (input 20 equivalents)
C[N+](C)(CCCC(=O)Oc1c(F)c(F)c(F)c(F)c1F)CCS(=O)(=O)[O-] [Compound 1d]	5	
C[N+](C)(CCCC(=O)Oc1c(F)c(F)c(F)c(F)c1F)CCCS(=O)(=O)[O-] [Compound 2c]	5	8
C[N+](C)(CCCCS(=O)(=O)[O-])CCCC(=O)Oc1c(F)c(F)c(F)c(F)c1F [Compound 3c]	3.3	
CCCOP(=O)([O-])OCC[N+](C)(C)CCCC(=O)Oc1c(F)c(F)c(F)c(F)c1F [Compound 4c]	3.4	7.1
